{
  "source": "patent US6274568A",
  "about": "“Compounds for altering cell surface sialic acids and methods of use therefor” (priority 1999, dated 2001)",
  "key": {"NG108-15 cells [1]": {"test_system": "NG108-15 cells", "experiment": "O-acetylation state of NeuGc in ManNGcPA-treated NG108-15 cells, thin layer chromatography", "assay_type": "cell-based, mouse neuroblastoma/rat glioma hybrid", "conditions": "1 mM, 48 h", "method": "O-Acetylated sialic acids from bovine submaxillary mucin served as standards. […] A portion of the organic/aqueous soluble pool (predominantly free sialic acids) was subjected to silicic acid thin layer chromatography using propanol-water (1:1) as developing solvent and resorcinol reagent for detection. Sialic acids released from bovine submaxillary mucin, which contain primarily O-acetylated forms of NeuAc (as well as NeuAc, NeuGc, and O-acetylated forms of NeuGc) were prepared and used as positive controls. Lane 1, bovine submaxillary mucin sialic acids; Lane 2, mucin sialic acids pretreated with concentrated ammonium hydroxide for 2 h at ambient temperature to selectively deplete O-acetyl groups; Lane 3, NeuAc standard; Lane 4, NeuGc standard; Lane 5, extract from ManNGcPA-treated NG108-15 cells. O-Acetylated forms of NeuGc, which are reported to migrate 60-100% farther than the parent NeuGc in this system, appear to be absent from the cell extract."}, "NG108-15 cells [2]": {"test_system": "NG108-15 cells", "experiment": "Uptake of mannosamine precursors and conversion to sialic acids (precursor pool, gangliosides, glycoproteins) in NG108-15 cells, HPLC", "assay_type": "cell-based, mouse neuroblastoma/rat glioma hybrid", "method": "Cells were harvested using hypertonic Ca^2+ - and Mg^2+ -free phosphate-buffered saline containing 1 mM EDTA, collected by centrifugation, and homogenized in ice-cold water using a Potter-Elvehjem glass/Teflon homogenizer. Methanol (2.6 volumes) was added, the suspension mixed and brought to ambient temperature, then chloroform (1.3 volumes, based on the original homogenate) was added and the suspension mixed vigorously. The suspension was centrifuged 30 min at 2,000×g. After collecting the supernatant, the pellet (containing precipitated proteins) was resuspended in water or concentrated ammonium hydroxide and a portion was used for protein assay (BCA, Pierce, Rockford, Ill.). The supernatant was partitioned by adjusting the chloroform-methanol-water ratio to 4:8:5.6 by addition of water, mixing thoroughly, and centrifuging as above. The upper phase was collected and a portion was subjected to reverse phase chromatography, using Sep-Pak C18 cartridges (Waters, Milford, Mass.), to isolate gangliosides (Schnaar, Methods Enzymol. 230:371, 1994).\nTo quantify and identify sialic acids, a portion of resolublized protein, organic/aqueous soluble pool, or reverse-phase purified gangliosides was evaporated to dryness in a 500-μl polypropylene tube and 20 μl of 0.1 M HCl/0.25 M NaCl was added. One Ampliwax bead (Perkin Elmer Corp, Foster City, Calif.) per reaction was added to block evaporation, and the sample hydrolyzed for 3 h at 80° C. Released sialic acids were analyzed by injecting an aliquot (1-10 μl) onto a Dionex high pressure liquid chromatography system (Dionex Corporation, Sunnyvale, Calif.) using a HPIC-AS6 column and a pulsed amperometric detector. Elution solutions were: A, 0.75 mM NaOH; B, 200 mM NaOH; and C, 400 mM sodium acetate in 50 mM NaOH. NeuAc and NeuPr were resolved by elution with 40% A, 50% B, 10% C for 15 min at 1 ml/min. NeuGc was resolved in separate injections using step gradient elution: 0-1.8 min, 18% A, 50% B, 32% C; 2-10 min, 40% B, 60% C. Sialic acids were identified by comparison of their elution time with those of standard NeuAc, NeuPr and NeuGc and were quantified in comparison to a standard curve of commercial NeuAc (for NeuAc and NeuPr) or NeuGc.\nTo confirm that the quantified peaks represented sialic acids, 10 μl of acid hydrolysates were treated with 1 μl of 1 M sodium phosphate (pH 7.2) and 10 μl of 0.1 M NaOH. Neutralized samples were incubated at 37° C. for 2 h with or without 0.9 U of N-acetylneuraminic acid aldolase (Sigma), 32 μM NADH and 0.1 μg lactate dehydrogenase. Sialic acid content in the ganglioside and glycoprotein fractions is expressed per mg of total cell protein. Precursor pool sialic acid (sialic acid plus CMP-sialic acid) was calculated by subtracting the ganglioside value from the organic/aqueous pool value, both expressed per mg of cell protein.\nSialic acid is biosynthesized from the precursor sugar N-acetylmannosamine (FIG. 2). In the present invention, sialic acids are converted on live neuronal cells from NeuAc, which is a key determinant for MAG binding, to NeuGc, which is non-permissive for MAG binding. A potential NeuGc precursor, N-glycolylmannosamine monoacetate (ManNGcMA, FIG. 1, R1 =H) was tested for its ability to generate altered sialic acids in neuronal and non-neuronal cells. N-propanoylmannosamine (ManNPr) and other N-acyl mannosamine derivatives have been used to modify glycoprotein associated sialic acids to the corresponding N-acylneuraminic acid. N-propanoyl-mannosamine (ManNPr), was used as a positive control. […] Cell pellets were fractioned into lipid associated, protein associated, and intracellular (lipid and cytoplasmic which may consist of oligosaccharide-bound, free, or CMP-activated sialic acid) sialic acids and hydrolyzed to release sialic acid. The hydrolyzed samples were then analyzed by HPLC to determine sialic acid content. […]"}, "[3]": {"conditions": "1 mM, 48 h, listed as ManNGc-OAc"}, "[4]": {"conditions": "1 mM, longer incubation (up to 144 h)"}},
  "data": [
    {"compound": "CC(=O)OCC(=O)N[C@@H]1C(OC(C)=O)O[C@H](COC(C)=O)[C@@H](OC(C)=O)[C@@H]1OC(C)=O", "note": "(some centres unmarked) [ManNGcPA, N-glycolylmannosamine pentaacetate]", "values": [
      {"measurement": "O-acetylated NeuGc in the precursor pool", "setting": "NG108-15 cells [1]", "value": "no significant proportion of O-acetylated NeuGc"},
      {"measurement": "de-O-acetylation prior to or coordinate with metabolism to sialic acid", "setting": "NG108-15 cells [1]", "value": "apparently complete de-O-acetylation"},
      {"measurement": "conversion of ganglioside sialic acids to the NeuGc form", "setting": "NG108-15 cells [2]; 0.02 mM, 48 h", "value": "~50", "unit": "%"},
      {"measurement": "conversion to the NeuGc form relative to 5 mM ManNGcMA", "setting": "NG108-15 cells [2]; 0.1 mM ManNGcPA vs 5 mM ManNGcMA, 48 h", "value": "≈ 2 fold"},
      {"measurement": "glycoprotein sialic acids as NeuGc", "setting": "NG108-15 cells [2]; 0.1 mM, 48 h", "value": 19.8, "unit": "%"},
      {"measurement": "intracellular sialic acid in the form of NeuGc", "setting": "NG108-15 cells [2]; 0.1 mM, 48 h", "value": 20.6, "unit": "%"},
      {"measurement": "total lipid associated sialic acid as NeuGc", "setting": "NG108-15 cells [2]; 0.1 mM, 48 h", "value": 17, "unit": "%"},
      {"measurement": "protein sialic acid, average over the experiment (mean±S.D.)", "setting": "NG108-15 cells [2]; 0.25 mM", "value": "3.8±1.2", "unit": "nmol/mg protein"},
      {"measurement": "total ganglioside sialic acid, average over the experiment (mean±S.D.)", "setting": "NG108-15 cells [2]; 0.25 mM", "value": "3.2±0.7 nmol/mg total cell protein"},
      {"measurement": "glycoconjugate sialic acid in the NeuGc form", "setting": "NG108-15 cells [2]; 0.25 mM or 1 mM, 96 h", "value": "> 70", "unit": "%"},
      {"measurement": "reversal of the conversion on withdrawal of the precursor", "setting": "NG108-15 cells [2]; 0.25 mM, 24 h of chase", "value": "partial reversal of the conversion"},
      {"measurement": "conversion of NeuAc to NeuGc in gangliosides", "setting": "NG108-15 cells [2]; 0.25 mM, 48 h", "value": "> 70", "unit": "%"},
      {"measurement": "conversion of NeuAc to NeuGc in glycoproteins", "setting": "NG108-15 cells [2]; 0.25 mM, 96 h, relative to >70% in gangliosides", "value": "a similar conversion in glycoproteins"},
      {"measurement": "conversion from NeuAc to NeuGc (precursor pool)", "setting": "NG108-15 cells [2]; 1 mM, 48 h", "value": 82, "unit": "%"},
      {"measurement": "intracellular sialic acid in the form of NeuGc", "setting": "NG108-15 cells [2]; 1.0 mM, 48 h", "value": 76.6, "unit": "%"},
      {"measurement": "ganglioside (lipid associated) sialic acid as NeuGc", "setting": "NG108-15 cells [2]; [3]", "value": 51.5, "unit": "%"},
      {"measurement": "glycoprotein (protein associated) sialic acid as NeuGc", "setting": "NG108-15 cells [2]; [3]", "value": 47, "unit": "%"},
      {"measurement": "glycoconjugate sialic acid in the NeuGc form", "setting": "NG108-15 cells [2]; 1 mM, 144 h", "value": 80, "unit": "%"},
      {"measurement": "ganglioside sialic acid as NeuGc", "setting": "NG108-15 cells [2]; [4]", "value": "≈ 80%"},
      {"measurement": "glycoprotein sialic acid as NeuGc", "setting": "NG108-15 cells [2]; [4]", "value": "60-70%"},
      {"measurement": "sialic acid precursor pool in the NeuGc form", "setting": "NG108-15 cells [2]; 1 mM, within 24 h (remained high up to 144 h)", "value": "> 80", "unit": "%"},
      {"measurement": "sialic acid precursor pool size", "setting": "NG108-15 cells [2]; 0.1 or 1.0 mM ManNGcPA, or 5 mM ManNGcMA, 48 h", "value": "none of these treatments significantly altered the sialic acid precursor pool size"},
      {"measurement": "change in lipid or protein associated sialic acid compared to DMSO treated control", "setting": "NG108-15 cells [2]; 0.1 or 1.0 mM, 48 h", "value": "no significant decrease in cell viability, or change in lipid or protein associated sialic acid"},
      {"measurement": "total ganglioside sialic acid level", "setting": "NG108-15 cells [2]; 0.1 or 1.0 mM, 48 h", "value": "not significantly altered"},
      {"measurement": "total glycoprotein sialic acid level", "setting": "NG108-15 cells [2]; 0.1 or 1.0 mM, 48 h", "value": "not significantly altered"},
      {"measurement": "increase in potency due to peracetylation", "setting": "NG108-15 cells [2]; ManNGcPA vs ManNGcMA, 48 h", "value": 100, "unit": "fold"}
    ]}
  ]
}
